In PubChem BioAssay (NCI) one finds TGI data, which are given here for twelve molecules.

Each structure is given as a SMILES string.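 How tested: cells in 96-well plates exposed to compound for 48 hours at five concentrations. TGI is the concentration that stops growth completely.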

Among the test systems are UACC-257 melanoma; NCI-H522 lung; CCRF-CEM leukemia; UACC-62 melanoma; KM12 colon; SK-OV-3 ovarian; HOP-92 NSCLC; RPMI-8226 leukemia; UO-31 renal; SW-620 colon; EKVX NSCLC; IGROV1 ovarian; OVCAR-5 ovarian; HCC-2998 colon; NCI/ADR-RES ovarian; T-47D breast; HOP-62 NSCLC; SR leukemia; MCF7 breast; BT-549 breast.
Assay in all cases: DTP human tumour cell line panel, 48 h

For orientation: TGI means the concentration giving total growth inhibition. With `O=C1NP23(OCCO2)Oc2ccccc2C3(C(F)(F)F)O1` (centres undefined), the concentration for total growth inhibition (TGI) in the experiment on UACC-257 melanoma, with NCI-H522 lung, in the experiment on CCRF-CEM leukemia, in the experiment on UACC-62 melanoma, in the experiment on KM12 colon and in the experiment with SK-OV-3 ovarian was more than 100 µM each time.
On to `COc1ccc(/C(Cl)=C(\C=O)c2ccc(OC)c(OC)c2)cc1`, for which the TGI in the experiment with HOP-92 NSCLC is 53.4 µM; in the experiment on RPMI-8226 leukemia it was more than 100 µM; with UO-31 renal, more than 100 µM; in the experiment on SW-620 colon it was more than 100 µM; in the experiment with NCI-H522 lung, 85.3 µM; with CCRF-CEM leukemia it was more than 100 µM. The TGI with EKVX NSCLC, in the experiment on UACC-62 melanoma, in the experiment with IGROV1 ovarian and with SK-OV-3 ovarian was more than 100 µM in each case.
Take `O=C(O)C1C2C=CC(C2)C1c1ccccc1` (centres undefined): the TGI with HOP-92 NSCLC, with OVCAR-5 ovarian, with RPMI-8226 leukemia, in the experiment on HCC-2998 colon, in the experiment with NCI/ADR-RES ovarian and with T-47D breast was more than 100 µM throughout. In addition, the TGI in the experiment on HOP-62 NSCLC, in the experiment on UO-31 renal, in the experiment with SR leukemia, with UACC-257 melanoma, in the experiment on SW-620 colon and in the experiment on CCRF-CEM leukemia was more than 100 µM throughout. Also, the TGI in the experiment on EKVX NSCLC, with UACC-62 melanoma, in the experiment with MCF7 breast, in the experiment on KM12 colon and in the experiment with SK-OV-3 ovarian was more than 100 µM each time.
Regarding `Cc1cc(C)c(C[C@H]2COC(=O)[C@]2(O)Cc2c(C)cc(C)cc2C)c(C)c1`, the TGI with HOP-92 NSCLC was determined as 29.7 µM; with OVCAR-5 ovarian, 35.9 µM; with RPMI-8226 leukemia, 77.7 µM; in the experiment with HCC-2998 colon, 30.7 µM; in the experiment with NCI/ADR-RES ovarian, 39.1 µM; with T-47D breast, 25.2 µM. In addition, the TGI with HOP-62 NSCLC is 35.8 µM; with UO-31 renal, 38.4 µM; in the experiment on SR leukemia, more than 100 µM; with UACC-257 melanoma, 34.6 µM; with SW-620 colon, 53.8 µM; with NCI-H522 lung, 34.4 µM. The TGI is more than 100 µM in the experiment on CCRF-CEM leukemia; 35.2 µM in the experiment with BT-549 breast; 28.2 µM in the experiment on EKVX NSCLC; 28.5 µM in the experiment on UACC-62 melanoma; 34 µM in the experiment on MCF7 breast; 37.1 µM with KM12 colon. In the experiment on SK-OV-3 ovarian, this molecule showed a total growth inhibition concentration (TGI) of 34.2 µM.
Regarding `CCOP(=O)(COCCn1ncc(=O)[nH]c1=O)OCC`, the TGI in the experiment with HOP-92 NSCLC, in the experiment on OVCAR-5 ovarian, in the experiment with RPMI-8226 leukemia, with HCC-2998 colon, with NCI/ADR-RES ovarian and in the experiment with T-47D breast was more than 100 µM each time. Moreover, the TGI with HOP-62 NSCLC, in the experiment with UO-31 renal, in the experiment on SR leukemia, in the experiment with SW-620 colon, in the experiment on NCI-H522 lung and in the experiment on CCRF-CEM leukemia was more than 100 µM in each case. Further, the TGI in the experiment on BT-549 breast, in the experiment with EKVX NSCLC, with IGROV1 ovarian, with MCF7 breast and with KM12 colon was more than 100 µM each time.
Regarding `COc1cc(O)c(C(=O)/C=C/c2ccc(O)cc2)cc1Oc1ccc(/C=C/C(=O)c2ccc(O)cc2O)cc1`, the total growth inhibition concentration (TGI) is 22.2 µM with HOP-92 NSCLC; 26.4 µM in the experiment on OVCAR-5 ovarian; 17.6 µM in the experiment on RPMI-8226 leukemia; 26.7 µM in the experiment on NCI/ADR-RES ovarian; more than 50 µM in the experiment on T-47D breast; 18.7 µM in the experiment on HOP-62 NSCLC. Also, the total growth inhibition concentration (TGI) in the experiment with UO-31 renal is 18.2 µM; with SR leukemia, 16.1 µM; in the experiment on UACC-257 melanoma it was 23.2 µM; in the experiment on SW-620 colon it was 38.5 µM; in the experiment with NCI-H522 lung it was 16 µM; in the experiment on CCRF-CEM leukemia it was 29.4 µM. Also, the TGI came to 22.6 µM in the experiment on BT-549 breast; 27.7 µM in the experiment on EKVX NSCLC; 17.6 µM in the experiment on UACC-62 melanoma; 15 µM in the experiment with IGROV1 ovarian; 22.9 µM in the experiment on MCF7 breast; 15.5 µM in the experiment on KM12 colon. In the experiment on SK-OV-3 ovarian, this molecule registered a TGI of 15.9 µM.
Consider `CN1C(=O)CSC1=S`, for which the total growth inhibition concentration (TGI) with HOP-92 NSCLC, with OVCAR-5 ovarian, with RPMI-8226 leukemia, with HOP-62 NSCLC, in the experiment with UO-31 renal and with SR leukemia was more than 100 µM in each case. Also, the TGI in the experiment with UACC-257 melanoma, in the experiment with SW-620 colon, in the experiment on NCI-H522 lung, in the experiment on CCRF-CEM leukemia, with UACC-62 melanoma and in the experiment with IGROV1 ovarian was more than 100 µM in each case. Besides, the TGI with KM12 colon and in the experiment with SK-OV-3 ovarian was more than 100 µM in each case.
With `COC(=O)c1ccccc1Nc1nc(-c2cccs2)nc2cc(OC)c(OC)cc12`, the TGI in the experiment on HOP-92 NSCLC was more than 100 µM; in the experiment on OVCAR-5 ovarian it was more than 100 µM; in the experiment on RPMI-8226 leukemia, more than 100 µM; in the experiment on NCI/ADR-RES ovarian, more than 100 µM; in the experiment with T-47D breast, more than 100 µM; with HOP-62 NSCLC, 42.1 µM. The TGI in the experiment with UO-31 renal, in the experiment with SR leukemia, with UACC-257 melanoma, in the experiment with SW-620 colon, in the experiment on NCI-H522 lung and in the experiment with BT-549 breast was more than 100 µM throughout. Further, the total growth inhibition concentration (TGI) in the experiment with EKVX NSCLC is more than 100 µM; with UACC-62 melanoma it was more than 100 µM; with IGROV1 ovarian, 74.7 µM; in the experiment on MCF7 breast, more than 100 µM; in the experiment with KM12 colon, more than 100 µM; with SK-OV-3 ovarian, more than 100 µM.
Turning to `COc1c(OC(C)=O)c(OC(C)=O)cc2c1-c1ccc(SC)c(=O)cc1C(NC(C)=O)CC2` (centres undefined), the total growth inhibition concentration (TGI) was more than 100 µM with HOP-92 NSCLC; more than 100 µM with OVCAR-5 ovarian; more than 100 µM with RPMI-8226 leukemia; more than 27.6 µM with HCC-2998 colon; more than 100 µM in the experiment with NCI/ADR-RES ovarian; more than 100 µM with T-47D breast. Also, the TGI is more than 100 µM in the experiment with HOP-62 NSCLC; more than 100 µM in the experiment on UO-31 renal; more than 100 µM with SR leukemia; more than 100 µM with UACC-257 melanoma; more than 100 µM in the experiment with SW-620 colon; 0.576 µM with NCI-H522 lung. In addition, the total growth inhibition concentration (TGI) was more than 100 µM in the experiment with CCRF-CEM leukemia; more than 100 µM with BT-549 breast; more than 100 µM in the experiment on EKVX NSCLC; more than 74.9 µM in the experiment with UACC-62 melanoma; more than 100 µM in the experiment on IGROV1 ovarian; more than 100 µM in the experiment with MCF7 breast. Further, the TGI with KM12 colon is more than 100 µM; with SK-OV-3 ovarian, more than 44 µM.
`O=C(c1ccccc1)c1c(-c2ccccc2)n(-c2ccccc2)[nH]c(=O)c1=O`: the TGI with HOP-92 NSCLC, in the experiment with OVCAR-5 ovarian, in the experiment with RPMI-8226 leukemia, with HCC-2998 colon, in the experiment with NCI/ADR-RES ovarian and in the experiment on T-47D breast was more than 100 µM each time. Further, the concentration for total growth inhibition (TGI) in the experiment on HOP-62 NSCLC is more than 100 µM; in the experiment with UO-31 renal, more than 100 µM; in the experiment with SR leukemia, more than 100 µM; with UACC-257 melanoma, more than 100 µM; in the experiment on NCI-H522 lung, 38.3 µM; in the experiment with CCRF-CEM leukemia, 35.5 µM. Also, the TGI was 91.7 µM in the experiment with BT-549 breast; more than 100 µM in the experiment on EKVX NSCLC; 75.5 µM in the experiment on UACC-62 melanoma; more than 100 µM in the experiment with IGROV1 ovarian; more than 100 µM in the experiment on MCF7 breast; more than 100 µM in the experiment with KM12 colon. Besides, the concentration for total growth inhibition (TGI) with SK-OV-3 ovarian was more than 100 µM.
In the case of `C=CC1C(OC2OC(CO)C(O)C(O)C2O)OC=C(C(=O)OC)C1CC1CC(=O)CC(CCc2ccc(O)cc2)O1` (centres undefined), the concentration for total growth inhibition (TGI) in the experiment with HOP-92 NSCLC, in the experiment on OVCAR-5 ovarian, in the experiment on RPMI-8226 leukemia, with HCC-2998 colon, with NCI/ADR-RES ovarian and in the experiment with T-47D breast was more than 100 µM each time. Besides, the TGI with HOP-62 NSCLC, with UO-31 renal, with SR leukemia, with UACC-257 melanoma, in the experiment with SW-620 colon and in the experiment with NCI-H522 lung was more than 100 µM each time. In addition, the TGI with CCRF-CEM leukemia, in the experiment with BT-549 breast, in the experiment with EKVX NSCLC, with UACC-62 melanoma, in the experiment with IGROV1 ovarian and with MCF7 breast was more than 100 µM in each case. The concentration for total growth inhibition (TGI) with KM12 colon and in the experiment on SK-OV-3 ovarian was more than 100 µM throughout.
With `CCC(C)C1NC(=O)C(NC(=O)c2c3[nH]c4c(C(=O)NC5C(=O)NC(C(C)CC)C(=O)N6CCCC6C(=O)N(C)CC(=O)N(C)C(C(C)C)C(=O)OC5C)ccc(C)c4oc-3c(C)c(=O)c2=O)C(C)OC(=O)C(C(C)C)N(C)C(=O)CN(C)C(=O)C2CCCN2C1=O` (centres undefined), the concentration for total growth inhibition (TGI) with HOP-92 NSCLC is more than 80.3 µM; with OVCAR-5 ovarian, more than 100 µM; in the experiment on RPMI-8226 leukemia, 35.1 µM; in the experiment with HCC-2998 colon it was 27.7 µM; in the experiment with NCI/ADR-RES ovarian, more than 100 µM; in the experiment on T-47D breast it was more than 40.5 µM. In addition, the total growth inhibition concentration (TGI) in the experiment on HOP-62 NSCLC is more than 100 µM; in the experiment on UO-31 renal, more than 77 µM; in the experiment on SR leukemia it was 4 µM; in the experiment with UACC-257 melanoma it was 38.6 µM; in the experiment on SW-620 colon, more than 93.7 µM; with NCI-H522 lung, 5.06 µM. Besides, the TGI is 9.81 µM with CCRF-CEM leukemia; more than 72.4 µM in the experiment on BT-549 breast; more than 100 µM in the experiment with EKVX NSCLC; 17.6 µM with UACC-62 melanoma; more than 100 µM with IGROV1 ovarian; more than 33 µM in the experiment with MCF7 breast. Moreover, the figures for the total growth inhibition concentration (TGI) in the experiment on KM12 colon and in the experiment on SK-OV-3 ovarian were more than 56.7 µM and more than 100 µM, respectively.
